The subject of one data set is CT-2A-R. The data set can be described thus: CCK8 cell proliferation assay, CT-2A-R. The class given is cell-based. As to conditions: Mus musculus, CCK8, 72 h. As to the method:
Cell viability and drug cytotoxicity were determined by a CCK-8 kit (Cell Counting Kit-8, CK04-13, MD, USA) (CCK8, C0005, Target Molecule Corp., MA, USA) reagent. Cells were seeded 2 × 10^3 per well in the 96-well plate for 24 h, followed by treating at different concentrations of compounds for 72 h. Before the experiment, CCK8 was 10-fold diluted with the culture medium and then incubated with cells for 30 min. Finally, the OD was 450 nm absorbance and calculated for cell viability.
A general note: Formazan colour is commonly taken as a measure of viable cells.

A further data set addresses T1, HDAC6 (Homo sapiens, UniProt Q9UBN7).
T1 construct: purchased Reaction Biology Corporation, Malvern, PA (contract assay service)
T1 sequence (Q9UBN7 1-1215): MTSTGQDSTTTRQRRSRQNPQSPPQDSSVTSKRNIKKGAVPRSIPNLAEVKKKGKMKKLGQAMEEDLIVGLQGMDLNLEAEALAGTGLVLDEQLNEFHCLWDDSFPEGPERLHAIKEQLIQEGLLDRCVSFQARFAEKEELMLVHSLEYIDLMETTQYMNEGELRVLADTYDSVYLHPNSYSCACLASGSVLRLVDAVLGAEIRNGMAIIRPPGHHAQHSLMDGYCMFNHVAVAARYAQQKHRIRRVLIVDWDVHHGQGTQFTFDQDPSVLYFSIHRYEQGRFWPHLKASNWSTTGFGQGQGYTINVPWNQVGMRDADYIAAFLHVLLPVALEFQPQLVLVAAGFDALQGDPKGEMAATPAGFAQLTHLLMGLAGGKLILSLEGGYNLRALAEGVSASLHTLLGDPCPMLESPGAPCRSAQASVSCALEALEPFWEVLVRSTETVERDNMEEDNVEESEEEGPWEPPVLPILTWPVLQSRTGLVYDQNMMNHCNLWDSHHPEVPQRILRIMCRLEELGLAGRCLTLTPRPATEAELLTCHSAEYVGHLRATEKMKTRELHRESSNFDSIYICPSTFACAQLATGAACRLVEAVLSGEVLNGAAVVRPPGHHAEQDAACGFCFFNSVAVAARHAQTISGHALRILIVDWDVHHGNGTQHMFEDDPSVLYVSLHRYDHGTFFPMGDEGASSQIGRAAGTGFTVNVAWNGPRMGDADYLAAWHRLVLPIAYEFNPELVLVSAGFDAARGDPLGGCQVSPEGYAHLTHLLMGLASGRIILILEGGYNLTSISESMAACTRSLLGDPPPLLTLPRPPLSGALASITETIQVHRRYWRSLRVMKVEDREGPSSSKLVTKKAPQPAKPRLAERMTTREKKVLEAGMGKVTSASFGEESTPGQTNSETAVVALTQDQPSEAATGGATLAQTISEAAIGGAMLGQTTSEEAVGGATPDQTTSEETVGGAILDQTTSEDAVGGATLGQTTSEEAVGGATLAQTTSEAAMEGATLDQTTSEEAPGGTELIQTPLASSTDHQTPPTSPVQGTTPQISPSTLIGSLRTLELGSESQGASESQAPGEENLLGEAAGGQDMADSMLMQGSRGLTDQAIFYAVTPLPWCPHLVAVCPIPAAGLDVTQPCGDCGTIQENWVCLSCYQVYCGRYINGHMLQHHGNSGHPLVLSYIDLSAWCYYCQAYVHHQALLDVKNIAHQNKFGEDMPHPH
Nature of the data set: HDAC enzyme inhibition assay, HDAC6. As to conditions: 10-dose, 3-fold serial dilution starting at 10 μM. The class given is biochemical. As to the method:
Enzyme inhibition assays were performed by the Reaction Biology Corporation, Malvern, PA (http://www.reactionbiology.com).

Data set [1] deals with phospho-ATM, CtIP, RPA32, and RAD51 in PT#3-R GBM cells. The data set can be described thus: Western blot of DNA repair proteins. The class given is cell-based, human. Conditions: 72 h. As to the method: The experimental procedure was performed as described in our previous study.[41] On the day prior to the experiment, […] cells were seeded into each well of a 6-well plate. The following day, the cells were washed twice with PBS and treated with 10 μM compound 1. […] The antibody models and dilution ratios used are detailed in Table S1. Protein image collection and quantification were done by the ChemiDoc Touch Imaging System (Cat. No. 12676029, Bio-Rad Laboratories, Inc., CA, USA).
For orientation: Immunoblotting shows a protein as a band on a membrane.

Data set [2] concerns Rad51 protein in PT#3R GBM cells. The data set can be described thus: Immunoprecipitation and ubiquitination assay. The class given is cell-based, human. Conditions: 24 h, IP with anti-Rad51 antibody.
Data set [3] is described as follows: Pharmacokinetic study in Sprague-Dawley rats. As to conditions: male, plasma, rat, 10 mg/kg intravenous. The class given is in vivo. As to the method: The pharmacokinetic study protocol of compound 1 was approved by the IACUC of TMU (LAC-2022-0452), in compliance with National Research Council’s Guide for the Care and Use of Laboratory Animal. 8 Week-old male Sprague–Dawley rats were provided by BioLASCO (Taipei, Taiwan). Each rat (n = 3) was intravenously administered with a single dosage of 10 mg/kg A089 through the jugular vein. Blood samples were collected from the jugular vein at predetermined time points: 0.03, 0.08, 0.25, 0.5, 1, 2, 4, 6, 8, 12, and 24 h postadministration. The blood samples were centrifuged at 4 °C to obtain the plasma samples. For protein precipitation, an aliquot of acetonitrile was added to the plasma, followed by centrifugation and filtration using a 0.22 μm filter. The filtrate was then analyzed by ultraperformance liquid chromatography–tandem mass spectrometry (UPLC–MS/MS, TQ-XS, Waters Corp., Manchester, UK). Pharmacokinetic parameters were calculated by using a noncompartmental analysis with Phoenix WinNonlin software (Certara, Princeton, NJ, USA).

The IC50 is the concentration that gives 50% inhibition. High values mean lower potency, low ones higher potency. As usually defined, the AUC(0-inf) is total exposure, with the tail of the curve extrapolated. High values mean high exposure, low ones low exposure. For orientation: AUC(0-t) means the area under the concentration-time curve up to a stated or last time point. A low value points to low exposure. In general, MRT inf refers to a mean duration of stay, worked out from the concentration-time curve. The term Vd denotes a proportionality between amount in the body and measured concentration, not a real space. Low readings indicate little distribution into tissue, high ones wide distribution into tissue. As a reminder, the clearance is the volume of plasma or blood freed of the substance per unit of time. Low readings indicate a low capacity for elimination, high ones a high capacity for elimination. In general, half-life refers to the time in which the quantity being followed falls by half. High values mean slow loss, low ones fast loss.

`O=C(/C=C/c1ccc(CNC[C@H]2CN(c3ccc(N4CCOCC4)c(F)c3)C(=O)O2)cc1)NO` [compound 1, (S,E)-3-(4-((((3-(3-Fluoro-4-morpholinophenyl)-2-oxooxazolidin-5-yl)methyl)ami-no)methyl)phenyl)-N-hydroxyacrylamide] yielded an IC50 in the data set on CT-2A-R of 8.27 ± 1.39 µM. This compound also came in with an IC50 against HDAC6 of 0.106 µM. Also, in data set [1], the “CtIP, RPA32 and RAD51 protein expression” value was “significant suppression”; the “phosphorylation of ATM” value was “significant increase in the phosphorylation”. Further, the Rad51 ubiquitination entry in data set [2] is recorded as “significant increase in Rad51 ubiquitination”. In data set [3], this compound returned an AUC(0-inf) at 24 h of 2280 ± 760 ng·h/mL, an AUC(0-t) at 24 h of 2010 ± 530 ng·h/mL, a C0 at 24 h of 12300 ± 8130 ng/mL and an MRT inf at 24 h of 7.91 ± 3.11 h. In data set [3], this compound showed a Vd at 24 h of 76.2 ± 12.3 L/kg, a clearance at 24 h of 78 mL/min/kg and a half-life at 24 h of 12 ± 4.42 h.
